Columns and labels:
[1] = target: T1, human topoisomerase I (hTopoI) (Homo sapiens, UniProt P11387); assay: Human topoisomerase I relaxation assay; type: biochemical; conditions: 1 µM, supercoiled pHOT1 DNA
T1 construct: purchased TopoGEN, Port Orange, FL, USA
T1 sequence (P11387 1-765): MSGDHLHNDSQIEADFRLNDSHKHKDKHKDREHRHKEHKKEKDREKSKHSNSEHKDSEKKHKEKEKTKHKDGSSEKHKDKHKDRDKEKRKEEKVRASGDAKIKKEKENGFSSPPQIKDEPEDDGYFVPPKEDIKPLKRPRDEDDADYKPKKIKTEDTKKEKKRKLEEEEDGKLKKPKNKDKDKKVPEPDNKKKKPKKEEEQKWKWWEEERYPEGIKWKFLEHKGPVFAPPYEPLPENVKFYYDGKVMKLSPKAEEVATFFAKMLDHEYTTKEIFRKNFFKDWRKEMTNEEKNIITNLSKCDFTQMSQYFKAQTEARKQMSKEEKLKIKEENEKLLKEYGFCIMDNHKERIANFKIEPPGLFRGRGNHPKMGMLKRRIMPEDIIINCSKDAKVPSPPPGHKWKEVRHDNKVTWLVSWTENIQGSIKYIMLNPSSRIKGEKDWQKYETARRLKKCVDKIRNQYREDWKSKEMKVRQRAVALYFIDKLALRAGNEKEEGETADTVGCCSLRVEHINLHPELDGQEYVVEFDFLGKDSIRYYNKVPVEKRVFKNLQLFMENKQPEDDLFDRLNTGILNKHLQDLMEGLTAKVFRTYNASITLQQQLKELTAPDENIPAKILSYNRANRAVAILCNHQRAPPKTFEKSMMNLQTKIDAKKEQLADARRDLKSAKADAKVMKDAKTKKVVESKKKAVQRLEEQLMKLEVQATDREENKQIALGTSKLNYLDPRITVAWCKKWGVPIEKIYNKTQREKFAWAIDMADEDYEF
Procedure: The human topoisomerase I relaxation assay was performed as reported in [86]. Shortly, the recombinant human topo I (TopoGEN, Port Orange, FL, USA) was incubated with the super-coiled pHOT1, in the presence or not of the tested compounds, at the indicated concentrations. The reaction products were then allowed to separate through the agarose gel electrophoresis, and ethidium bromide-stained DNA was visualized under UV light.

[2] = tested on: human mammary epithelial cell line MCF-10A; assay: MTT assay, toxicity towards normal cells; type: cell-based; conditions: 72 h
Procedure: The cell lines used were purchased from American Type Culture Collection (ATCC, Manassas, VA, USA). Human breast cancer cells MCF-7 and MDA-MB-231, human mammary epithelial cell line MCF-10A, and mouse BALB/3T3 embryonic fibroblasts were cultured as already described by some of us. The murine macrophage cell line RAW 264.7 was maintained in Dulbecco’s Modified Eagle’s Medium (DMEM) high glucose (4.5 g/L) supplemented with 10% Fetal Bovine Serum (FBS), 1% L-glutamine, and 100 units/mL of penicillin/streptomycin. The cell cultures were maintained at the temperature of 37 °C in a humidified atmosphere containing 5% CO2.
The 3-(4,5-dimethylthiazol-2-yl)-2,5-diphenyl-2H-tetrazolium bromide (MTT) assay (Sigma Aldrich (St. Louis, MO, USA)) was carried out to study the in vitro anticancer activities of the complexes, following the previously reported protocol. The cells were incubated for 72 h with different concentrations of the tested compounds (0.1, 1, 10, 25, 50, 100, and 500 µM) and the IC50 values were calculated from the percent (%) of control using the software GraphPad Prism 9 (GraphPad Software, La Jolla, CA, USA).

[3] = ABTS radical scavenging assay; type: biochemical
Procedure: The radical scavenging properties of the complexes on a 2,20-azino-bis(3-ethylbenzothiazoline-6-sulfonate) radical cation (ABTS^+) were evaluated as previously described.
All the complexes were used at different concentrations (5, 10, 25, 50, and 100 µg/mL) and the ABTS radical scavenging activity, measured at 730 nm using a microplate reader, was expressed as inhibition percentages (%IABTS) compared tothe control, according to the following expression:(3) IABTS (%)=ABSCTRL−ABSsample/ABSCTRL∗100 where ABSCTRL and ABSsample are the absorbance at 730 nm in the control and in the presence of samples, respectively.
IC50 values were calculated from the %IABTS using GraphPad Prism 9 software (GraphPad Inc., San Diego, CA, USA). Trolox was employed as a positive control, while caffeine and theophylline were reference compounds.

[4] = tested on: Pseudomonas aeruginosa (ATCC 15442); assay: MIC/MBC broth dilution; type: cell-based
Procedure: (§1) The bacterial strains used for MIC and MBC value determinations expressed as µg/mL by the broth dilution method, according to CLSI guidelines, were the following:
(§2) Increasing concentrations of the complexes (50, 70, 100, 150, and 200 µg/mL) were incubated with bacteria plated in 96-well microplates at 37 °C overnight as already reported, and then bacterial growth was checked at a wavelength of 600 nm using a Multiskan spectrophotometer (model Multiskan Ex Microplate; Thermo Scientific, Nyon, Switzerland). MIC or MBC values were obtained by comparing cell density with a positive control (bacterial cells grown in LB medium were added with only the vehicle, DMSO). […] Ampicillin, Gentamicin, and Cephalosporin (Sigma Aldrich A9393) were used as the control for strain sensitivity.

[5] = tested on: Salmonella typhimurium (ATCC 14028); assay: MIC/MBC broth dilution; type: cell-based
Procedure: as §1, §2

[6] = tested on: TNF-α expression in MDA-MB-231 cells; assay: Immunofluorescence, TNF-α expression; type: cell-based, human; conditions: 15 µM, 24 h
Procedure: After a PBS wash, cells were fixed using cold methanol (15 min at −20 °C) and incubated overnight at 4 °C with the primary antibodies raised against NF-κB, iNOS, TNF-α, and COX-1 and 2 (Santa Cruz Biotechnology Inc., Santa Cruz, CA, USA) diluted in BSA 2%, as previously described. […] DAPI (Sigma Aldrich, Milan, Italy) 0.2 µg/mL was added for 10 min for nuclei counterstaining. A fluorescence microscope (Leica DM 6000) was used for visualizing images, and LAS-X software 3.5.7.23225 was used for acquisition and processing.

## Cn1c(=O)c2c(n(C)[c]([Au-][I])[n+]2CC(O)c2ccccc2)n(C)c1=O (racemic) [AuL1, 1,3,7-Trimethylxanthin-9-[(2-hydroxy-2-phenyl)ethyl-8-ylidene]Au(I) Iodide]
[1]
  Inhibition of hTopo I supercoil relaxing activity: totally inhibited
[2]
  IC50: > 100 µM
[3]
  IC50: 161 ± 1 µM
[4]
  M.B.C. P. aeruginosa: > 125 µg/mL
  M.I.C. P. aeruginosa: 100 µg/mL
[5]
  M.B.C. S. typhimurium: > 200 µg/mL
  M.I.C. S. typhimurium: 150 µg/mL
[6]
  Reduction in TNF-α expression (fluorescence quantification): about 60%

## CC(=O)[O][Ag-][c]1n(C)c2c(c(=O)n(C)c(=O)n2C)[n+]1C1CCCCC1O (stereo not shown) [AgL2OAc, 1,3,7-Trimethylxanthin-9-[cyclohexan-2-ol-8-ylidene]Ag(I) Acetate]
[1]
  Inhibition of hTopo I supercoil relaxing activity: totally inhibited
[2]
  IC50: > 100 µM
[3]
  IC50: 145.4 ± 1.1 µM
[4]
  M.B.C. P. aeruginosa: > 125 µg/mL
  M.I.C. P. aeruginosa: 100 µg/mL
[5]
  M.B.C. S. typhimurium: > 200 µg/mL
  M.I.C. S. typhimurium: 150 µg/mL
[6]
  Reduction in TNF-α expression (fluorescence quantification): ~50%
